Seven compounds from patent publication EP0172632B1, “Benzopyrano[4,3,2-cd]indazole compounds, processes for their production and pharmaceutical compositions comprising the compounds” (WARNER-LAMBERT COMPANY, priority 1984, dated 1986) can be followed below.

Structures are written as SMILES. Structures can show the parent of a compound that is named as a salt.

For one test, the system named is L1210 cells. As to the kind of experiment: L1210 in vitro cell growth inhibition. Conditions: Mus musculus, 72 h; L1210 murine leukemia cells, three days incubation, 50% inhibition of growth; read-out: L1210 in vitro ID50. Type of test: cell-based. Here is the method:
Another test protocol uses L1210 cells, a murine leukemia cell line, grown in RPMI 1640 supplemented with 5% fetal bovine serum and gentamicin ([…]). Drug dilutions are prepared in the appropriate solvent and 20 µl of each dilution are added to 24-well Linbro tissue culture plates, followed by the addition of 2.0 ml of cell suspension containing 3 x 10^4 cells per ml. Solvent and medium controls are included in each test. After incubation at 37°C for three days in 5% CO2, the contents of each well are removed and the cells counted in a ZBI Counter counter. Percent growth are calculated relative to the controls and the levels of drug activity are expressed as ID50 in moles per liter.

The test system of the next test is HCT-8 cells. As to the kind of experiment: in vitro proliferating human colon adenocarcinoma (HCA) cell screen. Type of test: cell-based. Conditions: 60 to 65 hours with compound, 50% inhibition of growth, read-out: HCA-4 in vitro ID50. As to the method:
One test protocol is the in vitro proliferating human colon adenocarcinoma (HCA) cell screen. In this test, HCT-8 cells (HCA cell line received from Yale University) are trypsinized using trypsin-EDTA. A single cell suspension is achieved by passing the cells through a 26 gauge needle with a 20 cc syringe. A cell suspension is prepared using RPMI 1640 + 10% FCS + 50 µg/ml gentamicin sulfate with a cell concentration of approximately 30,000 cells/ml. The cell suspension is dispensed in Linbro 24-well plates; 1 ml/well. The plates are incubated for approximately 48 hours at 37°C in a 5% CO2 atmosphere. At this time test compounds are added in the appropriate concentration. Five µl of the 200 µg/ml stock solution is added to each well in a primary test. Ten ul of the appropriate dilution is added to each well for the titration test. The plates are reincubated an additional 60 to 65 hours at 37°C in a 5% C02 atmosphere. The cells are lysed using a mix of cationic surfactant, glacial acetic acid, and sodium chloride. Two ml of the lysed cell suspension from each well is added to 8 ml of diluent. The number of nuclei is determined using a Coulter counter (ZBI model), and a percent growth for each drug concentration is calculated. From this, an IDso (molar concentration of compound that results in 50% inhibition of growth) is determined.

Test [1] deals with lymphocytic leukemia P388. In words: in vivo lymphocytic leukemia P388 test. The following applies: Mus musculus, P388, ip, 120 h, mice, survival time treated/control, read-out: P388 in vivo T/C×100; for response vs control in vivo at 100 mg/kg: Dose 100 mg/kg intraperitoneally once daily for five days; for response vs control in vivo at 200 mg/kg: Dose 200 mg/kg intraperitoneally once daily for five days; for response vs control in vivo at 12.5 mg/kg: Dose 12.5 mg/kg intraperitoneally once daily for five days; for response vs control in vivo at 25 mg/kg: Dose 25 mg/kg intraperitoneally once daily for five days; for response vs control in vivo at 50 mg/kg: Dose 50 mg/kg intraperitoneally once daily for five days; for response vs control in vivo at 6.25 mg/kg: Dose 6.25 mg/kg intraperitoneally once daily for five days. As to the method: Another test protocol is the in vivo lymphocytic leukemia P388 test. The animals used are either male or female CD2F, mice. There are six or seven animals per test group. The tumor transplant is by intraperitoneal injection of dilute ascitic fluid containing cells of lymphocytic leukemia P388. The test compounds are administered intraperitoneally once daily for five consecutive days at various doses following tumor inoculation. The animals are weighed and survivors are recorded on a regular basis for 30 days. A compound is designated "toxic" if, at a given dose, all animals died prior to four days after the first injection of drug. A ratio of survival time for treated (T)/control (C) animals is calculated. A criterion for efficacy is a ratio T/C times 100 greater than or equal to 125. See Cancer Chemotherapy Reports, Part 3, 3, 1 (1972) for a comprehensive discussion of the protocol.

Test [2] concerns Penicillium avellaneum M2988. In words: in vitro antibacterial/antifungal (ABF) agar-disk diffusion assay. Type of test: cell-based. Conditions: Hamigera avellanea, read-out: ABF Zone Diameter (Conc. in mg/ml) P. Avell-aneum; for zone of inhibition at 3000 µg/mL: Conc. 3 mg/ml. As to the method: (§1) Still another test protocol is the in vitro antibacterial/antifungal (ABF) test. Compounds are tested for antimicrobial activity in an agar-disk diffusion assay, a standard microbiological technique for testing antibiotics. After incubation of each culture with a test compound, a zone of inhibition is determined. The zone diameter (mm) of active compounds ranges from a minimum of 13.5 mm to as high as 60 mm, with a greater diameter reflecting higher activity. For convenience, values are reported for two gram-negative bacteria (Aerobacter aerogenes 0126 and Escherichia coli 04863), two gram-positive bacteria (Bacillus subtilis 04555 and Streptococcus faecalis 05045 utilizing AM-09 medium), and one mycelial fungus (Penicillium avellaneum M2988).

Test [3] relates to Streptococcus faecalis 05045. The test is described as above. Type of test: cell-based. Conditions: Enterococcus faecalis, AM-09 medium, read-out: ABF Zone Diameter (Conc. in mg/ml) S. Fae-calis; for zone of inhibition at 500 µg/mL: Conc. .5 mg/ml. Here is the method: as §1
The subject of another test is Bacillus subtilis 04555. The test is described as above. Conditions: read-out: ABF Zone Diameter (Conc. in mg/ml) B. Sub-tilis; for zone of inhibition at 500 µg/mL: Conc. .5 mg/ml. Format: cell-based. Here is the method:
as §1

Another test deals with Salmonella typhimurium. In words: in vitro antibacterial (ABMF) microdilution susceptibility test. Type of test: cell-based. The following applies: Salmonella enterica, Mueller-Hinton broth microdilution, 37°C, 16-24 hours, read-out: ABMF Minimal Inhibitory Concentration (µ/ml) S. typh. From the text: (§2) Still another test protocol is the in vitro antibacterial (ABMF) test which is a recognized standard microdilution susceptibility procedure in Mueller-Hinton broth against Gram-positive and Gram-negative bacterial test organisms. The procedure is a modification of a state-of-the-art procedure reported in Manual of Clinical Microbiology, Lennette, E. H., ed., by Barry, A. L. and C. Thornsberry at pages 463-474 and by Gavan, T. L. and A. L. Barry at pages 459―462, American Society for Microbiology, Washington, 1980.
(§3) In the test, a given bacterial culture is used to inoculate individual test wells of microdilution trays containing growth medium and test compound, the latter in a microdilution series: 1000, 333.111, 37,12, 4, 1.4, and 0.46 micrograms per milliliter. […] For convenience, values are reported for Escherichia coli, Corynebacterium Sp. ATCC 21698, Salmonella typhimurium, Streptococcus pneumoniae, and Rhodotorula aurantiaca.
On the technique in general: In broth dilution the organism is exposed to a series of concentrations in liquid medium.

The test system of a further test is Streptococcus pneumoniae. Described as above. Format: cell-based. The following applies: Mueller-Hinton broth microdilution, 37°C, 16-24 hours, read-out: ABMF Minimal Inhibitory Concentration (µ/ml) S. pneum.
Excerpt: as §2, §3

Another test has as its system Rhodotorula aurantiaca. The description is as above. Format: cell-based. The following applies: Buckleyzyma aurantiaca; Mueller-Hinton broth microdilution, 37°C, 16-24 hours; read-out: ABMF Minimal Inhibitory Concentration (µ/ml) R. aurant.
Excerpt: as §2, §3

Another test has as its system Escherichia coli. Described as above. Format: cell-based. Conditions: Mueller-Hinton broth microdilution, 37°C, 16-24 hours, read-out: ABMF Minimal Inhibitory Concentration (µ/ml) E. coli.
Excerpt: as §2, §3

The subject of test [4] is Corynebacterium Sp. ATCC 21698. The test is described as above. Format: cell-based. Conditions: ATCC21698, Mueller-Hinton broth microdilution, 37°C, 16-24 hours, read-out: ABMF Minimal Inhibitory Concentration (µ/ml) Coryn. sp.
Excerpt: as §2, §3

`CCN(CC)CCn1nc2c3c(c(N)ccc31)Oc1ccccc1-2` [Example 3, 5-Amino-N,N-diethyl-2H-[1]benzopyrano[4,3,2-cd]indazol-2-ethanamine]: the values for the IC50 in the test with L1210 cells and in the test on HCT-8 cells were 1300 nM and 2400 nM, respectively.
Turning to `CCN(CC)CCn1nc2c3c(c([N+](=O)[O-])ccc31)Oc1ccccc1-2` [Example 1, N,N-Diethyl-5-nitro-2H-[1] benzopyrano[4,3,2-cd]indazole-2-ethanamine], the IC50 with L1210 cells worked out at 1900 nM; in the test on HCT-8 cells, 1000 nM. The response vs control in vivo at 100 mg/kg in [1] was 138%. Further, the response vs control in vivo at 200 mg/kg in test [1] amounted to 211%. Besides, the zone of inhibition at 3000 µg/mL in test [2] was 0 mm. Further, the zone of inhibition at 500 µg/mL in test [3] amounted to 15 mm; in the test on Bacillus subtilis 04555, 14 mm.
As for `CCN(CC)CCn1nc2c3c(c(NCCN)ccc31)Oc1ccccc1-2` [Example 4, N-[2-[2-(Diethylamino)ethyl]-2H-[1]benzopyrano[4,3,2-cd]indazol-5-yl]ethanediamine, trihydrobromide, dihydrate], the results for the IC50 in the test with L1210 cells and in the test with HCT-8 cells were 80 nM and 160 nM, respectively. Also, the response vs control in vivo at 12.5 mg/kg in [1] amounted to 174%. Further, the response vs control in vivo at 25 mg/kg in test [1] was 216%. Further, the zone of inhibition at 3000 µg/mL is 0 mm in test [2] and 16 mm in [3] (Conc. 3 mg/ml). Also, the zone of inhibition at 500 µg/mL with Bacillus subtilis 04555 was determined as 14 mm.
With `O=[N+]([O-])c1ccc2c3c(nn2CCNCCO)-c2ccccc2Oc13` [Example 2, 2-[[2-(5-Nitro-2H-[1]benzopyrano[4,3,2-cd]-indazol-2-yl)ethyl]amino]ethanol, monohydrochloride], the IC50 worked out at 400 nM in the test with L1210 cells and 500 nM in the test on HCT-8 cells. Besides, the response vs control in vivo at 50 mg/kg in [1] worked out at 141%. Also, the zone of inhibition at 100 µg/mL in test [2] (Conc. .1 mg/ml) was 19 mm; in the test on Bacillus subtilis 04555 (Conc. .1 mg/ml) it was 17 mm. In [3], the zone of inhibition at 500 µg/mL turned out to be 17 mm.
Turning to `COc1ccc2c(c1)-c1nn(CCCN(C)C)c3ccc([N+](=O)[O-])c(c13)O2` [Example 7, 9-Methoxy-N,N-dimethyl-5-nitro-2H-[1]benzopyrano[4,3,2-cd]indazole-2-propanamine, methanesulfonate (1:1.17)], the IC50 in the test with L1210 cells came out at 580 nM. In test [1], the response vs control in vivo at 50 mg/kg turned out to be 134%. In addition, the response vs control in vivo at 100 mg/kg in [1] was 159%. Moreover, in [1], the response vs control in vivo at 200 mg/kg worked out at 218%. The MIC is 111 µg/mL with Salmonella typhimurium; less than 0.46 µg/mL with Streptococcus pneumoniae; 1000 µg/mL in the test with Rhodotorula aurantiaca; 4.1 µg/mL in the test on Escherichia coli; less than 0.46 µg/mL in [4].
With `OCCNCCNc1ccc2c3c(nn2CCNCCO)-c2cc(O)ccc2Oc13` [Example 18, 2-[2[(2-Hydroxyethyl)amino]ethyl]-5-[[2-[(2-hydroxyethyl)amino]ethyl]amino-2H [1]benzopyrano[4,3,2-cd]indazol-9-ol, hydrochloride], the IC50 in the test on L1210 cells came out at 130 nM. In addition, the response vs control in vivo at 6.25 mg/kg in test [1] was found to be 173%. Further, the response vs control in vivo at 12.5 mg/kg in test [1] is 236%. The response vs control in vivo at 25 mg/kg in test [1] is 236%. In addition, the MIC with Salmonella typhimurium was 1000 µg/mL; in the test on Streptococcus pneumoniae, 333 µg/mL; in the test with Rhodotorula aurantiaca, more than 1000 µg/mL; in the test on Escherichia coli, 111 µg/mL; in [4], 37 µg/mL.
As for `CN(C)CCCn1nc2c3c(c([N+](=O)[O-])ccc31)Oc1ccc(O)cc1-2.CS(=O)(=O)O` [Example 11, 9-Hydroxy-N,N-dimethyl-5-nitro-2H-[1]benzopyrano[4,3,2-cd]indazole-2-propanamine, methanesulfonate (1:1)], the IC50 in the test on L1210 cells is 15 nM. Moreover, the response vs control in vivo at 6.25 mg/kg in [1] stood at 150%. Also, the response vs control in vivo at 12.5 mg/kg in test [1] was 200%. Moreover, the response vs control in vivo at 25 mg/kg in test [1] stood at 226%. For the same compound, the MIC with Salmonella typhimurium was 12.3 µg/mL; in the test on Streptococcus pneumoniae, less than 0.46 µg/mL; in the test on Rhodotorula aurantiaca, 1000 µg/mL; with Escherichia coli, less than 0.46 µg/mL; in [4], less than 0.46 µg/mL.
